From PubChem BioAssay (NCI)
Values joined by “and” are separate entries in the source; they are usually repeats but may differ in a detail not shown here. Equal entries are not always repeated.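 Five compound concentrations were applied to cells in 96-well plates for 48 hours; endpoints were derived by simple linear interpolation of the resulting dose-response curve. Here, GI50 denotes the concentration required for 50% inhibition of growth. Definition used: TGI = concentration required for complete inhibition of growth.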

Experiments:
Assay in all cases: NCI tumour cell line growth inhibition, 48 h
786-0 renal = test system: 786-0 renal
SNB-75 CNS = test system: SNB-75 CNS
SF-295 CNS = test system: SF-295 CNS
MALME-3M melanoma = test system: MALME-3M melanoma
HOP-62 NSCLC = test system: HOP-62 NSCLC
SK-OV-3 ovarian = test system: SK-OV-3 ovarian
HCC-2998 colon = test system: HCC-2998 colon
HT29 colon = test system: HT29 colon
COLO 205 colon = test system: COLO 205 colon
ACHN renal = test system: ACHN renal

Row | Structure (SMILES) | GI50 (786-0 renal) [µM] | TGI (786-0 renal) | GI50 (SNB-75 CNS) [µM] | TGI (SNB-75 CNS) | GI50 (SF-295 CNS) [µM] | TGI (SF-295 CNS) | GI50 (MALME-3M melanoma) [µM] | TGI (MALME-3M melanoma) | GI50 (HOP-62 NSCLC) [µM] | TGI (HOP-62 NSCLC) | GI50 (SK-OV-3 ovarian) [µM] | TGI (SK-OV-3 ovarian) | GI50 (HCC-2998 colon) [µM] | TGI (HCC-2998 colon) [µM] | GI50 (HT29 colon) [µM] | TGI (HT29 colon) | GI50 (COLO 205 colon) [µM] | TGI (COLO 205 colon) | GI50 (ACHN renal) [µM] | TGI (ACHN renal)
1 | Nc1nccc2c1ncn2C1OC(CO)C(O)C1O (configuration not stated) | > 100 | > 100 µM | > 100 | > 100 µM | > 100 | > 100 µM | > 100 | > 100 µM | > 100 | > 100 µM | > 100 | > 100 µM | > 100 | > 100 | > 100 | > 100 µM | > 100 | > 100 µM | > 100 | > 100 µM
2 | NS(=O)(=O)c1ccc(-n2ncc3c(Nc4ccccc4)ncnc32)cc1 | 18.3 | 55.7 µM | 33.5 | > 100 µM | 16.9 | 53.4 µM | 33 | > 100 µM | 16.7 | 48.5 µM | 99.8 | > 100 µM | 16.6 | 57.7 | 3.33 | 15.7 µM | 21.1 | > 100 µM | 38.5 | > 100 µM
3 | CCOC(=O)C1=C(Nc2ccc(Br)cc2)OC/C1=N\NC(=O)c1ccccc1O | – | > 100 µM | – | > 48.3 µM | – | > 100 µM | – | > 100 µM | – | > 65.1 µM | – | > 67.7 µM | – | > 100 | – | > 100 µM | – | > 100 µM | – | > 100 µM
4 | O=C(N/N=C/c1ccc(Cl)cc1Cl)c1ccc2nc(-c3ccc(Cl)cc3)[nH]c2c1 | 1.79 | 3.48 µM | 1.59 | 3.62 µM | 1.86 | 3.5 µM | 1.55 | 3.15 µM | 1.8 | 4.1 µM | 1.79 | 4.31 µM | 1.82 | 3.44 | 1.97 | 5.47 µM | 1.55 | 3.25 µM | 1.74 | 3.17 µM
5 | CC(C)CC12CC3CCC(CNC1=O)C32C (configuration not stated) | – | > 100 µM | – | > 100 µM | – | > 100 µM | – | > 100 µM | – | > 100 µM | – | > 100 µM | – | > 100 | – | > 100 µM | – | > 100 µM | – | > 100 µM
6 | C[C@@H](COCCC(=O)N1CCN(c2ncc(C(F)(F)F)cn2)CC1)Nc1cn[nH]c(=O)c1C(F)(F)F | 59.1 | > 100 µM | 47.8 | > 100 µM | 19.5 | > 100 µM | > 100 | > 100 µM | 23.6 | > 100 µM | 53 | > 100 µM | > 100 | > 100 | > 100 | > 100 µM | 98.6 | > 100 µM | 28.3 | > 100 µM
7 | CCn1c(=O)c2ccccc2n2c(=O)c3cc4ccccc4cc3nc12 | – | > 100 µM | – | 95.3 µM | – | 80 µM | – | > 100 µM | – | > 100 µM | – | > 100 µM | – | > 100 | – | > 100 µM | – | > 100 µM | – | > 100 µM
8 | O=C1c2ccccc2-c2c1c1ccc([N+](=O)[O-])cc1c(=O)n2CCCNCCO | 0.0479 | 0.43 µM | 0.372 | 1.34 µM | 0.0729 | 1.44 µM | 0.341 | 1.62 µM | 0.0408 | 0.544 µM | 0.525 | 2.56 µM | 0.817 | 2.13 | 0.053 | 0.82 µM | 1.05 | 2.81 µM | 0.0496 | 0.48 µM
9 | Cc1ccc2nc(-c3ccc(N)c4ccccc34)[nH]c2c1 | 0.161 | 20.9 µM | 1.38 | – | 0.716 | 9.53 µM | 5.85 | 27.3 µM | 0.617 | 4.39 µM | 0.283 | > 46.7 µM | 0.356 | 12.1 | 0.361 | – | 1.07 | 6.31 µM | 0.987 | 37.1 µM
10 | Cc1nc2c(N3CCCC3)nc(N3CCNCC3)nc2nc1NCc1ccccc1 | 1.62 | 10.5 µM and 3.18 µM | 1.85 | 4.11 µM and 4.69 µM | 5.81 | 11.3 µM and 5.02 µM | 7.17 | 14.5 µM and 4.23 µM | 5.76 | 11.8 µM and 8.26 µM | 6.15 | 11.7 µM and 20.5 µM | – | 2.95 | 1.95 | 8.36 µM and 11.7 µM | 1.77 | 7.59 µM and 3.32 µM | 2.69 | 7.54 µM and 16.5 µM
11 | S=c1sc2cscc2s1 | – | 46.5 µM | – | 35.8 µM | – | > 100 µM | – | 30.6 µM | – | 74.5 µM | – | 77.3 µM | – | 32.8 | – | > 100 µM | – | 40.9 µM | – | 42.5 µM
12 | CS/C(c1ccccc1)=[N+](\[O-])Cc1ccccc1 | – | > 100 µM | – | > 100 µM | – | > 100 µM | – | > 100 µM | – | > 100 µM | – | > 100 µM | – | > 100 | – | > 100 µM | – | > 100 µM | – | > 100 µM
13 | CCC1(NC(=O)c2cc(F)c(F)c(F)c2F)C(=O)NC(=O)N(C(C)C)C1=O (configuration not stated) | > 100 | > 100 µM | 21.3 | 45.9 µM | 27.4 | 87.3 µM | 24.9 | 76.3 µM | 58 | > 100 µM | 23.2 | 51.1 µM | 1.94 | 3.97 | 22.6 | > 100 µM | 27.5 | > 100 µM | 73.5 | > 100 µM
14 | Cc1cc(N(CCCNc2ccnc3cc(Cl)ccc23)Cc2ccc3c(c2)OCO3)nc(N2CCCCC2)n1 | 1.57 | 3.09 µM | 1.47 | 3.33 µM | 1.59 | 3.39 µM | 1.97 | 3.75 µM | 1.74 | 5.17 µM | 2.74 | 8.46 µM | 2.09 | 4.79 | 1.2 | 3.02 µM | 1.66 | 3.33 µM | 2.32 | 4.84 µM
15 | OCC(O)C(O)C(O)c1nn(-c2ccccc2)c2nc3cc(Cl)c(Cl)cc3nc12 (configuration not stated) | – | > 100 µM | – | 47.8 µM | – | > 100 µM | – | 77.7 µM | – | > 100 µM | – | > 100 µM | – | 98.4 | – | 57 µM | – | > 100 µM | – | > 100 µM
